Data published in patent US20090263488A1, “PRESSURISED METERED DOSE INHALERS CONTAINING SOLUTIONS OF BETA-2 AGONISTS” (Chiesi Farmaceutici S.p.A., priority 2002, published 2009).

Experiment: Stability study of TA 2005 HFA solution formulation in cans
Type: physicochemical
Conditions: HFA formulation able to deliver 4 μg per actuation; cans stored upright at 5° C.; after nine months
Description: A stability study on a formulation able to deliver 4 μg per actuation was initiated storing the cans upright at 5° C.

TA 2005 assay: higher than 95%
SMILES: COc1ccc(C[C@@H](C)NC[C@H](O)c2ccc(O)c3[nH]c(=O)ccc23)cc1 [TA 2005, 8-hydroxy-5-[(1R)-1-hydroxy-2-[[(1R)-2-(4-methoxyphenyl)-1-methylethyl]amino]ethyl]-2(1H)-quinolinone]
